Key:
[1] = target: Beta Secretase enzyme (BACE) (Homo sapiens (Human), UniProt P56817); test: In vitro enzymatic BACE FRET assay; assay type: biochemical; settings: read-out: BACE1 Enzyme assay IC50
Method: In Vitro Enzymatic BACE FRET (Fluorescence Resonance Energy Transfer) Assay (Enzyme Assay Data in the Example Table I)
The assay buffer used in this screen is 0.05 M acetate, pH 4.2, 10% DMSO final, 100 uM genapol (which is a nonionic detergent, below its Critical Micelle Concentration). […] This assay is effectively started by the addition of FRET substrate (50 nM) and the combination is incubated for one hour. The FRET assay is terminated with by addition of Tris buffer, which raises the pH to neutrality, and the fluorescence is determined. The FRET substrate is a peptide with commercially available fluorophore and quencher, on opposite sides of the BACE cleavage site.

Cathepsin D (Cat D) = Cathepsin D (Cat D) (Homo sapiens (Human), UniProt P07339); test: In vitro enzymatic Cathepsin D (Cat D) FRET assay; assay type: biochemical; settings: read-out: CatD IC50
BACE = BACE (Homo sapiens (Human), UniProt P56817); test: In vitro BACE cell-based assay (Aβ40 in conditioned medium, sandwich ELISA)
Chain of BACE (P56817 46-501, species assumed): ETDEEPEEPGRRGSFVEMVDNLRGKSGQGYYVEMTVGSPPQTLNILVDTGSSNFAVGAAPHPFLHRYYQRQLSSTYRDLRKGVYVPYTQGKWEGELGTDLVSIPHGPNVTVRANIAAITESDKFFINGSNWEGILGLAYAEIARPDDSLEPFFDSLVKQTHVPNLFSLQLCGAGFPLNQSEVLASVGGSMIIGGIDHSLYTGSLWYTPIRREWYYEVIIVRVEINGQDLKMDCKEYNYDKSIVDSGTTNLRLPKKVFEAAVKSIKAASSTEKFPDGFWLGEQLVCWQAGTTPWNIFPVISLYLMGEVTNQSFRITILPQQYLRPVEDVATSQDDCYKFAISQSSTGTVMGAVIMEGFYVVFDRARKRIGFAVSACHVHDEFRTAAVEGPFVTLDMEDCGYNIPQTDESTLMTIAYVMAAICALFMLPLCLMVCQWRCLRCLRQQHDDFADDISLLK

Chain of Beta Secretase enzyme (BACE) (P56817 46-501): as the sequence (P56817 46-501, species assumed) above
Chain of Cathepsin D (Cat D) (P07339 65-412, species assumed): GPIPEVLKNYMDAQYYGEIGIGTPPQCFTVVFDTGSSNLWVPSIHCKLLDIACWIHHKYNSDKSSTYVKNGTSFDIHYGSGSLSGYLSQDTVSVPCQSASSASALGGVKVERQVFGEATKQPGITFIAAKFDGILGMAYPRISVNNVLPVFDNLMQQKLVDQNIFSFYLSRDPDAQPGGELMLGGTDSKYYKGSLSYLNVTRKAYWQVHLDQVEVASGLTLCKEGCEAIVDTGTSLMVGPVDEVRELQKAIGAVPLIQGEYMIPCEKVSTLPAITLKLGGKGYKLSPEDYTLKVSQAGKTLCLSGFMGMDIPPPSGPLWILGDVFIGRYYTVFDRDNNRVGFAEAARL

For `C[C@H](C#N)Oc1ccc(C(=O)Nc2ccc(F)c([C@@]3(C(F)F)N=C(N)O[C@@H]4C[C@@H]43)c2)nc1` (mixture of isomers) [Example 259], which IC50 [1] is on record?
The IC50 was 0.659 µM.

What about the IC50 (Cathepsin D (Cat D)) of the same compound?
Its IC50 is 668 µM.

What about the IC50 (BACE) of the same compound?
Its IC50 is 0.473 µM.

With `COc1cnc2c(Nc3ccc(F)c([C@@]4(CF)N=C(N)O[C@@H]5C[C@@H]54)c3)ncc(F)c2c1` [Example 344, (1R,5S,6R)-5-(2-fluoro-5-((5-fluoro-3-methoxy-1,7-naphthyridin-8-yl)amino)phenyl)-5-(fluoromethyl)-2-oxa-4-azabicyclo[4.1.0]hept-3-en-3-amine] as the compound, how does the IC50 [1] read?
The IC50 was 430 µM.

What about the IC50 (Cathepsin D (Cat D)) of the same compound?
The IC50 was 596 µM.

And the IC50 (BACE)?
Its IC50 is 0.0982 µM.

What does the source list for `NC1=N[C@@](c2cc(NC(=O)[C@H]3CCCO3)ccc2F)(C(F)F)[C@H]2C[C@H]2O1` (mixture of isomers) [Example 244, (S,R)-N-(3-((1R,5S,6R)-3-amino-5-(difluoromethyl)-2-oxa-4-azabicyclo[4.1.0]hept-3-en-5-yl)-4-fluorophenyl) tetrahydrofuran-2-carboxamide]?
IC50 [1]: 5.37 µM; IC50 (Cathepsin D (Cat D)): 319 µM; IC50 (BACE): 1.98 µM

How did the IC50 [1] turn out when `N#Cc1cnc2c(Nc3ccc(F)c([C@@]4(CF)N=C(N)O[C@@H]5C[C@@H]54)c3)ncnc2c1` [Example 393, 4-((3-((1R,5S,6R)-3-amino-5-(fluoromethyl)-2-oxa-4-azabicyclo[4.1.0]hept-3-en-5-yl)-4-fluorophenyl)amino)pyrido[3,2-d]pyrimidine-7-carbonitrile] was run?
The IC50 was 0.198 µM.

And the IC50 (Cathepsin D (Cat D))?
Its IC50 is 147 µM.

And the IC50 (BACE)?
The IC50 was 0.0243 µM.

Which IC50 [1] does the source give for `Cc1cc(C(F)(F)F)cnc1C(=O)Nc1ccc(Cl)c([C@@]2(C(F)F)N=C(N)O[C@@H]3C[C@@H]32)c1` [Example 217, N-(3-((1R,5S,6R)-3-amino-5-(difluoromethyl)-2-oxa-4-azabicyclo[4.1.0]hept-3-en-5-yl)-4-chlorophenyl)-3-methyl-5-(trifluoromethyl) picolinamide] here?
Its IC50 is 0.0151 µM.

What about the IC50 (Cathepsin D (Cat D)) of the same compound?
The IC50 was 206 µM.

And the IC50 (BACE)?
Its IC50 is 0.0116 µM.

Which results are given for `CC#CCOc1cnc(C(=O)Nc2ccc(F)c([C@]3(C)N=C(N)O[C@H]4C[C@H]43)c2)c(C)c1` [Example 57, N-(3-((1S,5R,6S)-3-amino-5-methyl-2-oxa-4-azabicyclo[4.1.0]hept-3-en-5-yl)-4-fluorophenyl)-5-(but-2-yn-1-yloxy)-3-methylpicolinamide]?
IC50 [1]: 2.25 µM; IC50 (Cathepsin D (Cat D)): 333 µM; IC50 (BACE): 0.455 µM

How did the IC50 [1] turn out when `C#CCOc1cnc(C(=O)Nc2cc(F)c(F)c([C@@]3(CF)N=C(N)O[C@@H]4C[C@@H]43)c2)cn1` [Example 33, N-(3-((1R,5S,6R)-3-amino-5-(fluoromethyl)-2-oxa-4-azabicyclo[4.1.0]hept-3-en-5-yl)-4,5-difluorophenyl)-5-(prop-2-yn-1-yloxy)pyrazine-2-carboxamide] was run?
Its IC50 is 0.0054 µM.

What about the IC50 (Cathepsin D (Cat D)) of the same compound?
Its IC50 is 116 µM.

And the IC50 (BACE)?
The IC50 was 0.0014 µM.

For `NC1=N[C@@](c2cc(NC(=O)c3cnc(OCC4CCCCC4)cn3)ccc2F)(C(F)F)[C@H]2C[C@H]2O1` [Example 416, N-(3-((1R,5S,6R)-3-amino-5-(difluoromethyl)-2-oxa-4-azabicyclo[4.1.0]hept-3-en-5-yl)-4-fluorophenyl)-5-(cyclohexylmethoxy)pyrazine-2-carboxamide], which IC50 [1] is on record?
Its IC50 is 0.0121 µM.

What about the IC50 (Cathepsin D (Cat D)) of the same compound?
Its IC50 is 228 µM.

And the IC50 (BACE)?
The IC50 was 2.5 µM.

What does the source list for `NC1=N[C@@](c2cc(NC(=O)c3ncc(Cl)cc3CF)ccc2F)(C(F)F)[C@H]2C[C@H]2O1` [Example 308, N-(3-((1R,5S,6R)-3-amino-5-(difluoromethyl)-2-oxa-4-azabicyclo[4.1.0]hept-3-en-5-yl)-4-fluorophenyl)-5-chloro-3-(fluoromethyl) picolinamide]?
IC50 [1]: 0.0177 µM; IC50 (Cathepsin D (Cat D)): 186 µM; IC50 (BACE): 0.0321 µM

Which results are given for `NC1=N[C@@](c2cc(NC(=O)c3cnc(OCC4CCCC4)cn3)ccc2F)(C(F)F)[C@H]2C[C@H]2O1` [Example 418, N-(3-((1R,5S,6R)-3-amino-5-(difluoromethyl)-2-oxa-4-azabicyclo[4.1.0]hept-3-en-5-yl)-4-fluorophenyl)-5-(cyclopentylmethoxy)pyrazine-2-carboxamide]?
IC50 [1]: 0.0261 µM; IC50 (Cathepsin D (Cat D)): 891 µM; IC50 (BACE): 0.916 µM

For `NC1=N[C@@](c2cc(NC(=O)c3coc(C(F)F)n3)ccc2F)(C(F)F)[C@H]2C[C@H]2O1` [Example 150, N-(3-((1R,5S,6R)-3-amino-5-(difluoromethyl)-2-oxa-4-azabicyclo[4.1.0]hept-3-en-5-yl)-4-fluorophenyl)-2-(difluoromethyl)oxazole-4-carboxamide 2,2,2-trifluoroacetate], which IC50 [1] is on record?
The IC50 was 0.0322 µM.

What about the IC50 (Cathepsin D (Cat D)) of the same compound?
Its IC50 is 238 µM.

And the IC50 (BACE)?
The IC50 was 0.0182 µM.

Which IC50 [1] does the source give for `NC1=N[C@@](c2cc(NC(=O)c3cnc(OCc4nccs4)cn3)ccc2F)(C(F)F)[C@H]2C[C@H]2O1` [Example 165, N-(3-((1R,5S,6R)-3-amino-5-(difluoromethyl)-2-oxa-4-azabicyclo[4.1.0]hept-3-en-5-yl)-4-fluorophenyl)-5-(thiazol-2-ylmethoxy)pyrazine-2-carboxamide] here?
The IC50 was 0.0192 µM.

What about the IC50 (Cathepsin D (Cat D)) of the same compound?
Its IC50 is 383 µM.

And the IC50 (BACE)?
The IC50 was 0.0606 µM.

What does the source list for `NC1=N[C@@](c2cc(NC(=O)C3CC3)ccc2F)(C(F)F)[C@H]2C[C@H]2O1` [Example 260, N-(3-((1R,5S,6R)-3-amino-5-(difluoromethyl)-2-oxa-4-azabicyclo[4.1.0]hept-3-en-5-yl)-4-fluorophenyl) cyclopropanecarboxamide]?
IC50 [1]: 5.17 µM; IC50 (Cathepsin D (Cat D)): 104 µM; IC50 (BACE): 3.19 µM

For `Cc1cc(OC(F)F)cnc1C(=O)Nc1ccc(Cl)c([C@@]2(CF)N=C(N)O[C@@H]3C[C@@H]32)c1` [Example 126, N-(3-((1R,5S,6R)-3-amino-5-(fluoromethyl)-2-oxa-4-azabicyclo[4.1.0]hept-3-en-5-yl)-4-chlorophenyl)-5-(difluoromethoxy)-3-methylpicolinamide], which IC50 [1] is on record?
The IC50 was 0.0835 µM.

What about the IC50 (Cathepsin D (Cat D)) of the same compound?
The IC50 was 1200 µM.

And the IC50 (BACE)?
The IC50 was 0.0146 µM.

How did the IC50 [1] turn out when `NC1=N[C@](CF)(c2cc(NC(=O)c3ncc(Cl)cc3CF)ccc2Cl)[C@H]2C[C@H]2O1` [Example 441, N-(3-((1R,5S,6R)-3-amino-5-(fluoromethyl)-2-oxa-4-azabicyclo[4.1.0]hept-3-en-5-yl)-4-chlorophenyl)-5-chloro-3-(fluoromethyl) picolinamide] was run?
The IC50 was 0.0252 µM.

And the IC50 (Cathepsin D (Cat D))?
The IC50 was 444 µM.

And the IC50 (BACE)?
Its IC50 is 0.0159 µM.

How did the IC50 [1] turn out when `NC1=N[C@@](c2cc(Nc3ncnc4cc(C(F)(F)F)cnc34)ccc2F)(C(F)F)[C@H]2C[C@H]2O1` [Example 449, (1R,5S,6R)-5-(difluoromethyl)-5-(2-fluoro-5-((7-(trifluoromethyl)pyrido[3,2-d]pyrimidin-4-yl)amino)phenyl)-2-oxa-4-azabicyclo[4.1.0]hept-3-en-3-amine] was run?
Its IC50 is 0.124 µM.

And the IC50 (Cathepsin D (Cat D))?
Its IC50 is 79.4 µM.

And the IC50 (BACE)?
The IC50 was 0.268 µM.

`Cc1cc(Cl)cnc1C(=O)Nc1ccc(Cl)c([C@@]2(CF)N=C(N)O[C@@H]3C[C@@H]32)c1` [Example 443, N-(3-((1R,5S,6R)-3-amino-5-(fluoromethyl)-2-oxa-4-azabicyclo[4.1.0]hept-3-en-5-yl)-4-chlorophenyl)-5-chloro-3-methylpicolinamide] was tested. Which IC50 [1] did it give?
Its IC50 is 0.0373 µM.

And the IC50 (Cathepsin D (Cat D))?
Its IC50 is 517 µM.

And the IC50 (BACE)?
Its IC50 is 0.0136 µM.

How did the IC50 [1] turn out when `Cc1cc(C#N)cnc1C(=O)Nc1ccc(F)c([C@@]2(CF)N=C(N)O[C@@H]3C[C@@H]32)c1` [Example 196, N-(3-((1R,5S,6R)-3-amino-5-(fluoromethyl)-2-oxa-4-azabicyclo[4.1.0]hept-3-en-5-yl)-4-fluorophenyl)-5-cyano-3-methylpicolinamide] was run?
Its IC50 is 0.0324 µM.

And the IC50 (Cathepsin D (Cat D))?
The IC50 was 703 µM.

And the IC50 (BACE)?
Its IC50 is 0.009 µM.

With `N#Cc1csc(C(=O)Nc2ccc(F)c([C@@]3(C(F)F)N=C(N)O[C@@H]4C[C@@H]43)c2)c1` [Example 178, N-(3-((1R,5S,6R)-3-amino-5-(difluoromethyl)-2-oxa-4-azabicyclo[4.1.0]hept-3-en-5-yl)-4-fluorophenyl)-4-cyanothiophene-2-carboxamide] as the compound, how does the IC50 [1] read?
Its IC50 is 1.07 µM.

What about the IC50 (Cathepsin D (Cat D)) of the same compound?
The IC50 was 534 µM.

And the IC50 (BACE)?
The IC50 was 1.56 µM.

`Cc1cnc(C(=O)Nc2ccc(F)c([C@@]3(C(F)F)N=C(N)O[C@@H]4C[C@@H]43)c2)c(C)c1` [Example 185, N-(3-((1R,5S,6R)-3-amino-5-(difluoromethyl)-2-oxa-4-azabicyclo[4.1.0]hept-3-en-5-yl)-4-fluorophenyl)-3,5-dimethylpicolinamide] was tested. Which IC50 [1] did it give?
The IC50 was 0.107 µM.

What about the IC50 (Cathepsin D (Cat D)) of the same compound?
Its IC50 is 753 µM.

What about the IC50 (BACE) of the same compound?
The IC50 was 0.148 µM.

How did the IC50 [1] turn out when `COc1cnc(C(=O)Nc2ccc(Cl)c([C@@]3(CF)N=C(N)O[C@@H]4C[C@@H]43)c2)c(Cl)c1` [Example 284, N-(3-((1R,5S,6R)-3-amino-5-(fluoromethyl)-2-oxa-4-azabicyclo[4.1.0]hept-3-en-5-yl)-4-chlorophenyl)-3-chloro-5-methoxypicolinamide] was run?
The IC50 was 0.122 µM.

And the IC50 (Cathepsin D (Cat D))?
Its IC50 is 752 µM.

And the IC50 (BACE)?
The IC50 was 0.0149 µM.

How did the IC50 [1] turn out when `NC1=N[C@@](c2cc(NC(=O)C3CCOCC3)ccc2F)(C(F)F)[C@H]2C[C@H]2O1` [Example 242] was run?
The IC50 was > 40 µM.

And the IC50 (Cathepsin D (Cat D))?
The IC50 was 1910 µM.

And the IC50 (BACE)?
The IC50 was > 15.6 µM.

How did the IC50 [1] turn out when `COCc1cc(C#N)cnc1C(=O)Nc1ccc(Cl)c([C@@]2(CF)N=C(N)O[C@@H]3C[C@@H]32)c1` [Example 386, N-(3-((1R,5S,6R)-3-amino-5-(fluoromethyl)-2-oxa-4-azabicyclo[4.1.0]hept-3-en-5-yl)-4-chlorophenyl)-5-cyano-3-(methoxymethyl)picolinamide] was run?
Its IC50 is 0.0251 µM.

And the IC50 (Cathepsin D (Cat D))?
The IC50 was 1820 µM.

And the IC50 (BACE)?
Its IC50 is 0.0085 µM.

How did the IC50 [1] turn out when `CC#Cc1ccc(C(=O)Nc2ccc(F)c([C@@]3(C(F)F)N=C(N)O[C@@H]4C[C@@H]43)c2)nc1` [Example 314, N-(3-((1R,5S,6R)-3-amino-5-(difluoromethyl)-2-oxa-4-azabicyclo[4.1.0]hept-3-en-5-yl)-4-fluorophenyl)-5-(prop-1-yn-1-yl)picolinamide] was run?
Its IC50 is 0.0467 µM.

What about the IC50 (Cathepsin D (Cat D)) of the same compound?
Its IC50 is 421 µM.

What about the IC50 (BACE) of the same compound?
The IC50 was 0.0891 µM.

`N#Cc1cnc2c(Nc3ccc(F)c([C@@]4(C(F)F)N=C(N)O[C@@H]5C[C@@H]54)c3)nccc2c1` [Example 446, 8-((3-((1R,5S,6R)-3-amino-5-(difluoromethyl)-2-oxa-4-azabicyclo[4.1.0]hept-3-en-5-yl)-4-fluorophenyl)amino)-1,7-naphthyridine-3-carbonitrile] was tested. Which IC50 [1] did it give?
Its IC50 is 0.0558 µM.

And the IC50 (Cathepsin D (Cat D))?
The IC50 was 658 µM.

And the IC50 (BACE)?
The IC50 was 0.107 µM.

From patent US9085576B2 (AMGEN INC., priority 2013, dated 2015)
